Test results: the NIST ThermoML archive (doi:10.1016/j.jct.2014.05.008)
Numbers after ± are expanded uncertainties.

Details: 101.33 kPa, Liquid; for mass density: Vibrating tube method; for thermal conductivity: hot wire

Row | SMILES | mass density (293.2 K) [kg/m3] | mass density (303.2 K) [kg/m3] | mass density (313.2 K) [kg/m3] | mass density (323.2 K) [kg/m3] | mass density (333.2 K) [kg/m3] | thermal conductivity (333.2 K) [W/m/K] | mass density (343.2 K) [kg/m3] | thermal conductivity (343.4 K) [W/m/K] | thermal conductivity (303.3 K) [W/m/K] | also measured
1 | CCCC[N+]1(C)CCCC1.N#CN=C=[N-] [1-butyl-1-methylpyrrolidinium dicyanamide] | 1018.3 ± 0.9 | 1011.8 ± 0.9 | 1006.1 ± 0.9 | 1000.6 ± 0.8 | 995.6 ± 0.8 | 0.147 ± 0.011 | 991.3 ± 0.8 | 0.142 ± 0.02 | – | thermal conductivity (293.5 K): 0.155 ± 0.011 W/m/K; thermal conductivity (303.2 K): 0.155 ± 0.011 W/m/K; thermal conductivity (313.3 K): 0.153 ± 0.011 W/m/K; thermal conductivity (323.3 K): 0.151 ± 0.011 W/m/K
2 | CCCCn1cc[n+](C)c1.N#CN=C=[N-] [1-butyl-3-methylimidazolium dicyanamide] | 1064.5 ± 1 | 1057.5 ± 1 | 1051 ± 1 | 1045.1 ± 0.9 | 1040.6 ± 0.9 | – | 1035.7 ± 0.9 | – | 0.166 ± 0.011 | thermal conductivity (293.6 K): 0.167 ± 0.011 W/m/K; thermal conductivity (313.4 K): 0.163 ± 0.011 W/m/K; thermal conductivity (323.5 K): 0.163 ± 0.011 W/m/K; thermal conductivity (333.7 K): 0.153 ± 0.011 W/m/K; thermal conductivity (344.2 K): 0.15 ± 0.011 W/m/K
3 | CCn1cc[n+](C)c1.N#CN=C=[N-] [1-ethyl-3-methylimidazolium dicyanamide] | 1107.5 ± 1.1 | 1100.4 ± 1.1 | 1093.5 ± 1 | 1087 ± 1 | 1081 ± 1 | 0.17 ± 0.02 | 1076.1 ± 1 | 0.165 ± 0.02 | 0.179 ± 0.011 | thermal conductivity (293.4 K): 0.183 ± 0.011 W/m/K; thermal conductivity (313.1 K): 0.178 ± 0.02 W/m/K; thermal conductivity (323 K): 0.181 ± 0.02 W/m/K
